Data: patent publication US8852657B2, “Chromones as therapeutic agents” (Unigen, Inc., priority 2007, dated 2014)
“Also recorded” adds a separate entry of the source.

Assays:
[1] = test system: C57BL/6J mice fed high fat diet; experiment: Plasma insulin level (ELISA), high-fat diet induced model; type: in vivo, mouse; conditions: day 14 of treatment after 8 weeks high-fat diet; P<0.05; GW1929 5 mg/kg, UP394 and UP396 100 mg/kg
Description: A high-fat diet induced animal model was developed and used for evaluation of potential therapeutic effects of chromone extracts. The C57BL/6J is a clinically relevant animal model that can be used in studies on metabolic disorders, pathophysiology of impaired glucose tolerance and for development of novel therapeutic agents (Ahren et al. (2004) Diabetes 53 (Supplement 3):S215-S219; Laakso et al. (2004) Diabetes Care 27:2253-2259; Kahn et al. (2004) Diabetes 53:3274-3285; Scheurink et al. (1998) European J Endo. 139:461-467; Yuan et al. (2002) Diabetes 51:1851-1858; Reitman et al. (2005) Endocrinology 145:3258-3264; Vlassara et al. (2005) Diabetes 54:2314-2319; Cawthome et al. (2002) Molecular and Cellular Proteomics 1:509-516). Methodology of model induction was first explained by Surwit et al. in 1988 (Diabetes, 37:1163-1167). In brief, impaired glucose tolerance and metabolic disorder like symptoms were inflicted successfully in C57BL/6J mice when fed with high fat diets for 8 weeks. Male C57BL/6J mice were purchased from Jackson Laboratories (Bar Harbor, Me.) at age of 6 weeks. One week after acclimation period, animals were divided into groups (n=5 or 6) and provided with high fat (45% kcal) rodent pellet (Research diets, Inc., New Brunswick, N.J.) and water ad libitum for 12 weeks except at times of glucose and insulin tolerance tests at which feed was withheld for three hours. Animals were maintained in a temperature controlled room (22.2° C.) on a 12 hour light-dark cycle. Blood glucose, cholesterol, and triglyceride were monitored every week for 12 weeks as described previously. Body weight measurement was taken once a week for 12 weeks.
Once induction of the metabolic disorders was confirmed by weekly monitoring of selected parameters (glucose, triglyceride and cholesterol) i.e. on the 8th week, daily intraperitoneal treatment was initiated and maintained for 4 weeks. […]
The plasma insulin levels were measured with an ELISA kit for insulin (Crystal Chem—Chicago, Ill.). […]

[2] = test system: adiponectin secreted into the media by differentiated 3T3-L1 cells; experiment: Adiponectin ELISA assay, improved protocol (differentiated 2 days, treated 48 hours); type: cell-based, mouse; conditions: for activity in the adiponectin assay: sub-fractions and isolated compounds of P0017-OE
Procedure: (§1) 3T3-L1, an embryonic mouse cell line (American Type Culture Collection, Manassas, Va.), is a sub-strain of the 3T3 swiss albino line that can differentiate from a pre-adipose to adipose state. These preadipocytes were cultured in Dulbecco's modified Eagle medium (DMEM) containing 10% fetal bovine serum (FBS) (Mediatech, Inc., Herndon, Va.).
(§2) To establish a differentiation protocol, the 3T3-L1 cells were plated into 96-well plates and cultured overnight to confluence. The confluent cells were induced to differentiate 2 days post-confluence. The induction was conducted with 0.5 mM isobutylmethylzanthine, 1.0 μM dexamethasone and 1.7 μM insulin (Sigma-Aldrich, St. Louis, Mo.) supplemented into culture media. On the 7th day the adipocytes were treated with the control compounds or plant extracts for 24 hours. All controls and plant extracts were solublized in DMSO and added to the culture media at 1% of the total volume. Cell media was collected to measure the levels of adiponectin and assayed by enzyme-linked immunosorbent assay (ELISA) according to the manufacturer's protocol (R&D Systems, Minneapolis, Minn.). The assay sensitivity ranged from 31.25-2000 pg/mL. The positive controls were tested in a range from 0.01 to 300 μM (FIG. 1).
Due to the poor signal to background ratio of the assay (less than 2), the previously mentioned protocol needed to be improved. Adipocytes were plated and differentiated as previously described. The cells were differentiated in the differentiation medium for 48 hours either with or without the addition of insulin. Then the cells were treated with the control compounds or plant extracts for only 48 hours post-differentiation. All other parameters were the same as previously mentioned. The indomethacin (FIG. 1) and troglitazone (data not shown) controls were tested at 10-100 μM and 3-30 μM respectively. The greatest increase in the level of adiponectin was 52-fold above the signal of baseline which was achieved by indomethacin treatment at 100 μM, while the lowest increase was 7-fold with indomethacin at 10 μM (FIG. 1B).

[3] = test system: tyrosinase; conditions: in vitro; Yagi et al. (1987); cited from earlier work
[4] = test system: human intestinal bacteria; conditions: cited from earlier work
[5] = test system: adiponectin secreted into the media by differentiated 3T3-L1 cells; experiment: Adiponectin ELISA assay, previously published protocol (differentiated 7 days, treated 24 hours); type: cell-based, mouse; conditions: for fold increase in adiponectin level: 1 μM, greatest fold increase, differentiated 7 days, treated 24 hours
Procedure: as §1, §2

[6] = test system: C57BL/6J mice fed high fat diet; experiment: Intraperitoneal glucose tolerance test, high-fat diet induced model (UP394/UP396); type: in vivo, mouse; conditions: day 18; times 60, 90 and 120 minutes; p<0.05; GW1929 5 mg/kg, UP396 100 mg/kg intraperitoneally
Description: A high-fat diet induced animal model was developed and used for evaluation of potential therapeutic effects of chromone extracts. The C57BL/6J is a clinically relevant animal model that can be used in studies on metabolic disorders, pathophysiology of impaired glucose tolerance and for development of novel therapeutic agents (Ahren et al. (2004) Diabetes 53 (Supplement 3):S215-S219; Laakso et al. (2004) Diabetes Care 27:2253-2259; Kahn et al. (2004) Diabetes 53:3274-3285; Scheurink et al. (1998) European J Endo. 139:461-467; Yuan et al. (2002) Diabetes 51:1851-1858; Reitman et al. (2005) Endocrinology 145:3258-3264; Vlassara et al. (2005) Diabetes 54:2314-2319; Cawthome et al. (2002) Molecular and Cellular Proteomics 1:509-516). Methodology of model induction was first explained by Surwit et al. in 1988 (Diabetes, 37:1163-1167). […] Blood glucose, cholesterol, and triglyceride were monitored every week for 12 weeks as described previously. […]
An intraperitoneal glucose tolerance test was conducted using the C57BL/6J mice as described in Example 12 at a dose of 2 g/kg on day 18 of treatment with intraperitoneal administration of GW1929 (5 mg/kg), UP394 (100 mg/kg), UP396 (100 mg/kg) and vehicle. […] Blood glucose levels were measured at time 0, 30, 60, 90, and 120 minutes. […]

Row | Compound | plasma insulin levels compared to vehicle [1] | fold increase in adiponectin level ([2]; 30 μM, treated 48 hours) | activity in the adiponectin assay [2] | fold increase in adiponectin level [5] | further results
1 | CC(=O)Cc1cc(=O)c2c(C)cc(O)c([C@@H]3O[C@H](CO)[C@@H](O)[C@H](O)[C@H]3O)c2o1 [UP394, aloesin] | decreased the insulin levels significantly; also recorded: Significant decreases in plasma insulin levels | 2 fold | active in increasing adiponectin production |  | activity in the adiponectin assay ([2]; listed as P0017-AC1): exhibited activity in the adiponectin assay; inhibition of tyrosinase activity [3]: strong inhibitor; cleavage of the c-glucosyl bond [4]: can be cleaved
2 | Cc1cc(O)c(C2OC(O)C(O)C(O)C2CO)c2oc(CC(C)O)cc(=O)c12 (stereo not drawn) [UP396, aloesinol] |  | 3.2 fold |  |  | 
3 | COc1ccc2c(c1)c(CC(=O)O)c(C)n2C(=O)c1ccc(Cl)cc1 [indomethacin] |  |  |  | 1.6 fold | signal to background ratio of the assay ([5]; best ratio, indomethacin at concentrations between 0.1-300 μM, published experimental conditions): 1.6; fold increase in adiponectin level ([2]; 10 μM, differentiated 2 days, treated 2 days): 7 fold; fold increase in adiponectin level ([2]; 100 μM, differentiated 2 days, treated 2 days): 52 fold
4 | Cc1c(C)c2c(c(C)c1O)CCC(C)(COc1ccc(CC3SC(=O)NC3=O)cc1)O2 (stereo not drawn) [troglitazone] |  | 49 fold |  | 1.7 fold | fold increase in adiponectin level ([2]; 3 μM, treated 48 hours): 24 fold
5 | aloesinol [UP396] | decreased the insulin levels significantly; also recorded: Significant decreases in plasma insulin levels |  | active in increasing adiponectin production |  | activity in the adiponectin assay ([2]; listed as P0017-AC2): exhibited activity in the adiponectin assay; glucose utilization in intraperitoneal glucose tolerance test compared to vehicle [6]: Significant glucose utilization
